From patent publication EP0252380B1, “Antibiotic LL-E19020 alpha and beta” (AMERICAN CYANAMID COMPANY, priority 1986, dated 1988)
In brackets after ≈: the same amount, converted by molar mass. Like-named read-outs stand apart in the source and are kept apart here. Marks after values point to notes of the source that are not given here.

Columns and labels:
[1] = test system: In Vitro Rumen Fermentation; experiment: Propionate enhancement activity during in vitro rumen fermentation; type: cell-based, steer; details: for A:P: acetate/propionate ratio
Description: The drugs are dissolved or suspended (sonified if necessary) in a 0.1% Tween 20-ethanol-water vehicle and 25-50 ul is added to the incubation. The reaction is terminated with 6N HCl and centrifuged at 20,000 x g. Alliquots of the superinatant are analyzed for volatile fatty acid (VFA) content by gas-liquid chromatography.

Treponema hyodysenteriae [2] = experiment: Minimum inhibitory concentration by microdilution (Table VII); type: cell-based; details: Brachyspira hyodysenteriae, read-out: MIC
Treponema hyodysenteriae [3] = experiment: T. hyodysenteriae disk test (primary in vitro disk diffusion test); details: Brachyspira hyodysenteriae
[4] = test system: Mycoplasma gallisepticum "R"; experiment: Minimum inhibitory concentration assay for Mycoplasma gallisepticum (microdilution, Table VII); details: Mycoplasmoides gallisepticum
[5] = Weight gain and feed efficiency of broiler chicks (Example 6, Table IX); type: in vivo, Peterson X Arbor Acres chicks; details: 200 PPM in diet
[6] = Weight gains and feed efficiency in broiler chicks treated with E19020 alpha (Table IX A); type: in vivo; details: 200 PPM
Description: Five male and five female one day old Peterson X Arbor Acres chicks are allotted to starter battery cages by weight. Cages are randomized to treatment groups with seven replicates per treatment. […] The positive standard is penicillin at 200 ppm. Diets are prepared weekly.

[7] = test system: Pasteurella haemolytica 30660; experiment: Pasteurella disk test (primary in vitro disk diffusion test); type: cell-based; details: Mannheimia haemolytica; disks soaked in 2.5 mg/ml solution; strain 30660
[8] = test system: Pasteurella multocida 31081B; experiment: as above; details: Pasteurella multocida, 31081B, read-out: ZONE SIZE
[9] = ATCC27164, strain B78 (ATCC 27164)
[10] = ATCC31212, strain B204 (ATCC 31212)

## AVOPARCIN [reference compound]
[1]; Table X, 1.0 PPM, control 2.65
  A:P: 2.38
[1]; Table X, 1.0 PPM, control 159.4
  TOTAL VFA: 159.4 mM
[1]; Table X, 2.000 PPM, control 2.65
  A:P: 2.23
[1]; Table X, 2.000 PPM, control 159.4
  TOTAL VFA: 160.2 mM
[1]; Table X, 4.0 PPM, control 2.65
  A:P: 2.12
[1]; Table X, 4.0 PPM, control 159.4
  TOTAL VFA: 158.9 mM
[1]; Table X, 8.0 PPM, control 2.65
  A:P: 2.08
[1]; Table X, 8.0 PPM, control 159.4
  TOTAL VFA: 158.3 mM
[1]; Table XI, 1.0 PPM, control 2.19
  A:P: 2.02
[1]; Table XI, 1.0 PPM, control 125.3
  TOTAL VFA: 126.9 mM
[1]; Table XI, 2.0 PPM, control 2.19
  A:P: 1.98
[1]; Table XI, 2.0 PPM, control 125.3
  TOTAL VFA: 125.3 mM
[1]; Table XI, 4.0 PPM, control 2.19
  A:P: 1.90
[1]; Table XI, 4.0 PPM, control 125.3
  TOTAL VFA: 121.3 mM
[1]; Table XI, 8.0 PPM, control 2.19
  A:P: 1.88
[1]; Table XI, 8.0 PPM, control 125.3
  TOTAL VFA: 119.4 mM

## C=C[C@]1(C)C[C@@H](OC(=O)CSCCN(CC)CC)[C@]2(C)[C@H](C)CC[C@]3(CCC(=O)[C@H]32)[C@@H](C)[C@@H]1O [TIAMULIN, reference compound]
Treponema hyodysenteriae [2]; [9]
  MIC: 0.015 µg/mL (≈ 0.0304 µM)
Treponema hyodysenteriae [2]; [10]
  MIC: 0.015 µg/mL (≈ 0.0304 µM)
Treponema hyodysenteriae [3]; ATCC27164, read-out: ZONE SIZE
  zone of inhibition at 2500 µg/mL: 67 mm
Treponema hyodysenteriae [3]; ATCC31212, read-out: ZONE SIZE
  zone of inhibition at 2500 µg/mL: 70 mm

## CC[C@H]1OC(=O)C[C@@H](O)[C@H](C)[C@@H](O[C@@H]2O[C@H](C)[C@@H](O[C@H]3C[C@@](C)(O)[C@@H](O)[C@H](C)O3)[C@H](N(C)C)[C@H]2O)[C@@H](CC=O)C[C@@H](C)C(=O)/C=C/C(C)=C/[C@@H]1CO[C@@H]1O[C@H](C)[C@@H](O)[C@@H](OC)[C@H]1OC [TYLOSIN, reference compound]
[4]
  MIC: 0.03 µg/mL (≈ 0.0327 µM)

## COC(=O)N/N=C/c1c[n+]([O-])c2ccccc2[n+]1[O-] [CARBADOX, reference compound]
Treponema hyodysenteriae [2]; [9]
  MIC: 0.5 µg/mL (≈ 1.91 µM)
Treponema hyodysenteriae [2]; [10]
  MIC: 0.25 µg/mL (≈ 0.953 µM)

## Penicillin [reference compound]
[5]
  Wg Gains And Feed Efficiency % Improvement Over Controls COMBINED: 3.5%
  Wg Gains And Feed Efficiency % Improvement Over Controls FEMALES: 4.2%
  Wg Gains And Feed Efficiency % Improvement Over Controls MALES: 2.4%
[5]; control 1.41
  Wg Gains And Feed Efficiency % Improvement Over Controls FEED/GAIN: 1.35**
[6]
  FEED/GAIN % I[…] CONTROLS 0-3 WEEKS: 3.5%
  FEED/GAIN % I[…] CONTROLS 0-7 WEEKS: 6.0%
  WEIGHT GAIN % I[…] CONTROLS 0-3 WEEKS: 4.9%
  WEIGHT GAIN % I[…] CONTROLS 0-7 WEEKS: 3.4%
[6]; control 1.43
  FEED/GAIN 0-3 WEEKS: 1.38**
[6]; control 1.99
  FEED/GAIN 0-7 WEEKS: 1.87**
[6]; control 608
  WEIGHT GAIN IN GRAMS 0-3 WEEKS: 638* GRAMS
[6]; control 2145
  WEIGHT GAIN IN GRAMS 0-7 WEEKS: 2217 GRAMS

## CN(C)C1C(=O)C(C(N)=O)=C(O)C2(O)C(=O)C3=C(O)c4c(O)ccc(Cl)c4C(C)(O)C3CC12 (stereo not shown) [CTC, reference compound]
[7]
  zone of inhibition at 2500 µg/mL: 11 mm
[8]
  zone of inhibition at 2500 µg/mL: 25 mm
Treponema hyodysenteriae [3]; ATCC27164, read-out: ZONE SIZE
  zone of inhibition at 2500 µg/mL: 45 mm
Treponema hyodysenteriae [3]; ATCC31212, read-out: ZONE SIZE
  zone of inhibition at 2500 µg/mL: 37 mm
[4]
  MIC: 0.5 µg/mL (≈ 1.04 µM)
